Measurements as given in US8268836B2, “Compound useful as a c-Met inhibitor” (Eli Lilly and Company, priority 2010, dated 2012).
Read-outs that look alike come from different tables or passages of the source.

What was measured:
[1] = tested on: U87MG glioblastoma xenografts; test: Xenograft tumor model U87MG; assay type: in vivo, mice
Experimental: (§1) Human glioblastoma cells U87MG, human gastric cancer cells MKN45, or human pancreatic KP4 cells are cultured and implanted subcutaneously in the rear flank of female CD-1 nu/nu strain mice which have been acclimated for one week in the animal facility after receipt from the vendor. Mice are randomized into groups of 10 mice per group. Testing compound is prepared in an appropriate vehicle and is administered by oral gavage when tumors are established (7-21 days after implant, or when the mean tumor volume reaches ˜100 mm^3). Tumor response is determined by tumor volume measurement performed twice a week during the course of treatment. Fluctuations in body weight are also monitored as a general measurement of toxicity. The compound of example 1 is orally administered twice a day for 28 days.
(§2) For statistical analysis, the individual subject tumor volumes are transformed to log volume and are analyzed with a two-way repeated measures analysis of variance by time and treatment using the MIXED procedures in SAS software (version 8.2). The correlation model for the repeated measures is spatial power. Treated groups are compared to the control group at the final time point. The MIXED procedure is also used separately for each treatment group to calculate adjusted means and standard errors at each time point. Both analyses account for the autocorrelation within each subject.

[2] = Kinetic solubility screen (nephelometry); assay type: physicochemical
Experimental: The assay is used to determine the concentration range in which a compound that has been pre-solubilized in DMSO at 10 mM will precipitate from a solution. The assay is conducted in a screening format on a 96-well plate and measures the nephelometry (light scattering) from precipitated compound in aqueous phosphate buffer (50 mM; pH 7.4). This method consists of a 2-hour RT (room temperature) incubation of compound in buffer at concentrations of 10, 20, 40, 60, 80, and 100 μM (where % DMSO is kept constant). Plates are pre-read by the nephelometer to determine if scratches or dust particles are present and this is used for background subtraction. The reported values are the concentrations at which the last soluble and first insoluble are achieved. These assays are not optimized to assess equilibrium solubility or determine a “true” kinetic solubility.

MKN45 gastric xenografts = test: Xenograft tumor model MKN45; assay type: in vivo, mice
Experimental: as §1, §2

[3] = Plasma concentration in IVTI studies; assay type: in vivo; conditions: athymic nude, mouse, oral, 10% acacia
Experimental: In IVTI studies, each compound is administered orally and formulated in 10% w/v acacia. Mouse blood samples are collected with anti-coagulant (EDTA-purple top Vacutainer tube) post-dose using cardiac puncture techniques. Tubes are inverted for 3-5 times and are placed on ice until centrifugation at 3000 RPM (1800×g) for 10 min at 4° C. to obtain plasma. Aliquots of plasma are pipetted and stored in a clean 96 well plate. Plasma samples are stored immediately at −80° C. Shipments of plasma samples are packed in dry ice and samples are frozen at −80° C. until analysis.
A 0.1-mg/mL stock solution of each drug was prepared and is serially diluted into pooled mouse plasma to prepare standards ranging from 1 to 5000 ng/mL. Plasma standards or samples (0.025 mL) in 96-well plates are treated by protein precipitation with the addition of a 0.1-0.2 ml of methanol: acetonitrile (1/1, v/v) containing internal standard. […] Samples and standards are analyzed with a Sciex API 4000 Triple Quadrupole Mass Spectrometer (Sciex, Division of MDS Inc., Toronto, Canada) coupled to a Shimadzu HPLC System (LC-10AD, Shimadzu Corporation) and a Gilson 215 Autosampler. […] Quantitation is performed using multiple reaction monitoring (MRM) at the following transitions: Example 1 (m/z 363.05 to m/z 163.10) and the reference compound 20 (m/z 363.05 to m/z 163.10). […]

[4] = Rat bioavailability study; assay type: in vivo
Experimental: In rat bioavailability studies, each compound is administered intravenously (IV) or orally (PO). Intravenous dosing is formulated in solution formulation and oral dosing is formulated in 10% w/v acacia. Rat blood samples are collected using anti-coagulant (EDTA) collection tubes and centrifugation is performed to obtain plasma samples. Aliquots of plasma are pipetted and stored immediately at <−20° C. Shipments of plasma samples are packed in dry ice if needed and samples are frozen at <−20° C. until analysis.
A stock solution of each drug is prepared and is diluted into pooled rat plasma to prepare standards. Plasma standards or samples are treated by protein precipitation or liquid-liquid extraction using organic solvent containing internal standard. The mixtures are centrifuged and aliquots of the resulting supernatant fractions are transferred. In the case of protein precipitation, supernatant is diluted and analyzed using a Mass Spectrometer coupled to a HPLC System and an autosampler. In the case of liquid-liquid-extraction, supernatant is dried under N2 at 40° C., reconstituted and analyzed using a Mass Spectrometer coupled to a HPLC System and an autosampler. Quantitation is performed using multiple reaction monitoring (MRM) and linear regression plots of compounds to internal standard peak area ratios versus drug concentrations.

[5] = 4 mg/kg oral twice a day for 28 days
[6] = 8 mg/kg oral twice a day for 28 days
[7] = 16 mg/kg oral twice a day for 28 days
[8] = 32 mg/kg oral twice a day for 28 days
[9] = plasma, PO 10 mg/kg in 10% acacia, Example 1 dosed as mesylate salt

Question: With `Cn1cc(-c2ccc3nnc(Sc4ccc5nn(C)cc5c4)n3n2)cn1` [Example 1, 6-(1-Methyl-1H-pyrazol-4-yl)-3-(2-methyl-2H-indazol-5-ylthio)-[1,2,4]triazolo[4,3-b]pyridazine] as the molecule, how does the “Mean Tumor Volume ± Standard Error” value ([1]; 2 mg/kg oral twice a day for 28 days) read?
Answer: 271 ± 61 mm^3

Question: And the “Mean Tumor Volume ± Standard Error” value [1, 5]?
Answer: 137 ± 29 mm^3

Question: What about the “Mean Tumor Volume ± Standard Error” value [1, 6] of the same molecule?
Answer: 108 ± 16 mm^3

Question: What about the “Mean Tumor Volume ± Standard Error” value [1, 7] of the same molecule?
Answer: 116 ± 19 mm^3

Question: What about the “Mean Tumor Volume ± Standard Error” value [1, 8] of the same molecule?
Answer: 46 ± 4 mm^3

Question: And the “1st insoluble pH 7.4” value ([2]; 50 mM phosphate buffer pH 7.4, 2 h RT, from 10 mM DMSO)?
Answer: Non detect

Question: What about the solubility at 2 h ([2]; aqueous phosphate buffer, aqueous buffer, kinetic from dmso stock, 50 mM phosphate buffer pH 7.4, 2 h RT, from 10 mM DMSO, read-out: Last soluble pH 7.4) of the same molecule?
Answer: > 100 µM

Question: What about the “fold more soluble than the reference compound in pH 7.4 buffer” value ([2]; kinetic solubility screen pH 7.4) of the same molecule?
Answer: at least 3 fold

Question: What about the “Mean Tumor Volume ± Standard Error” value (MKN45 gastric xenografts; [5]) of the same molecule?
Answer: 329 ± 54 mm^3

Question: What about the “Mean Tumor Volume ± Standard Error” value (MKN45 gastric xenografts; [6]) of the same molecule?
Answer: 296 ± 29 mm^3

Question: What about the “Mean Tumor Volume ± Standard Error” value (MKN45 gastric xenografts; [7]) of the same molecule?
Answer: 166 ± 10 mm^3

Question: What about the “Mean Tumor Volume ± Standard Error” value (MKN45 gastric xenografts; [8]) of the same molecule?
Answer: 161 ± 14 mm^3

Question: What about the concentration at 8 h ([3]; 8 mg/kg, read-out: Plasma conc. 8 mg/Kg after 8 h) of the same molecule?
Answer: 141 ng/mL

Question: What about the concentration at 8 h ([3]; 20 mg/kg, read-out: Plasma conc. 20 mg/Kg after 8 h) of the same molecule?
Answer: 318 ng/mL

Question: And the “fold increase in oral bioavailability vs reference compound” value [4]?
Answer: 4.5 fold

Question: What about the “fold longer terminal elimination half life vs reference compound” value ([4]; 1 mg/kg intravenous dose) of the same molecule?
Answer: 4 fold

Question: What about the “fold lower plasma clearance vs reference compound” value ([4]; 1 mg/kg intravenous dose) of the same molecule?
Answer: 18 fold

Question: And the “fold higher exposure by peak plasma concentration vs reference compound” value ([4]; 10 mg/kg oral dose, 10% acacia)?
Answer: 57 fold

Question: What about the “fold higher exposure by plasma AUC vs reference compound” value ([4]; 10 mg/kg oral dose, 10% acacia) of the same molecule?
Answer: 93 fold

Question: What about the clearance ([4]; plasma, IV 1 mg/kg solution, Example 1 dosed as mesylate salt) of the same molecule?
Answer: 1.7 mL/min/kg

Question: And the half-life ([4]; plasma, IV 1 mg/kg solution, Example 1 dosed as mesylate salt, read-out: T½ (converted))?
Answer: 2.3 h

Question: What about the Vd ([4]; plasma, IV 1 mg/kg solution, Example 1 dosed as mesylate salt, read-out: Vdss) of the same molecule?
Answer: 0.3 L/kg

Question: What about the AUC [4, 9] of the same molecule?
Answer: 73800 ng·h/mL

Question: What about the Cmax [4, 9] of the same molecule?
Answer: 9400 ng/mL

Question: What about the Tmax [4, 9] of the same molecule?
Answer: 3.33 h

Question: What about the bioavailability ([4]; plasma, PO 10 mg/kg vs IV 1 mg/kg, Example 1 dosed as mesylate salt, read-out: F % (oral bioavailability)) of the same molecule?
Answer: 65.8%
